{
  "source": "patent US12303509B2",
  "about": "“Compounds for the treatment of BRAF-associated diseases and disorders” (Pfizer Inc., priority 2020, dated 2025)",
  "key": {"[1]": {"test_system": "NCI-H1666 (BRAF G466V) cells", "assay": "Cellular phospho-ERK inhibition assay in NCI-H1666 cells", "type": "cell-based", "settings": "Homo sapiens, 1 hour treatment, read-out: IC50 NCI-H1666 pERK", "procedure": "The compounds of Example 13, Example 14 and Example 126 were evaluated in a phospho-ERK assay in two mutant BRAF Class III cell lines: NCI-H1666 (BRAF^G466V) and WM3629 cells (BRAF^D594G/NRAS^G12D). NCI-H1666 cells were obtained from the American Type Culture Collection (ATCC, Rockville, MD) and WM3629 cells were obtained from Rockland Immunochemicals (Limerick, PA). Cells were maintained in RPMI growth medium containing 10% FBS.\nCells were harvested according to standard protocols, counted, and plated onto flat-bottom, 96-well tissue culture plates (Costar #3599) at 2.5×10^4 cells/well in 100 μL/well of growth medium containing 10% FBS. After an overnight incubation at 37° C. with 5% CO2 cells were treated for 1 hour at 37° C., 5% CO2 with inhibitors prepared as a 9-point, 1:3.33 fold dilution series with final compound concentrations ranging from 66 pM-10 μM and a constant DMSO concentration of 0.25%. Control wells contained either 0.25% DMSO alone (uninhibited control) or 10 μM binimetinib (complete inhibition control). The levels of phosphorylated ERK were determined using an In Cell Western protocol: following compound incubation, growth medium was discarded, and cells were fixed with 0.4% formaldehyde in PBS for 20 minutes at room temperature. Cells were permeabilized with 100% methanol for 10 minutes at room temperature. Plates were washed with PBS containing 0.05% Tween-20 and blocked for 1 hour at room temperature with LI-COR Blocking Buffer (LI-COR Biosciences; Cat. #927-40000). Plates were then incubated for 2 hours at room temperature with 50 μL of a 1:400 dilution of anti-phospho-ERK1/2 (Thr202/Tyr204) (Cell Signaling; Cat. #9101) and a 1:1000 dilution of anti-GAPDH (Millipore; Cat. #MAB374) in LI-COR blocking buffer containing 0.05% Tween-20. […] Plates were analyzed by reading on an Odyssey CLx infrared scanner. […]\n[formula] • Where: • Xmax d Average Uninhibited Controls • Xmin Average Complete Inhibition Controls • IC50 values were then calculated using a 4-parameter fit in XLfit software and are shown in Table A2."}, "[2]": {"assay": "PK (free brain-to-free plasma ratio) (mouse)", "type": "in vivo", "settings": "male CD-1 mice, oral gavage 10 mg/kg, unbound brain-to-unbound plasma, read-out: B/P ratio (free)", "procedure": "The ability of representative compounds to penetrate the BBB in mice was determined by evaluating the unbound brain-to-unbound plasma (also referred to as free brain-to-free plasma) concentration ratio in male CD-1 mice.\nBrain compound levels were generated from oral mouse PK dosing with typical sampling times of 2, 4, 8, 12 and 24 hours post oral gavage dosing at 10 mg/kg. Brain samples were stored at −20±5° C. prior to analysis. Concentrations of test compound in mouse brain homogenate were determined by liquid chromatography tandem mass spectrometry (LC-MS/MS) following protein precipitation with acetonitrile. A 12-point calibration curve, ranging from 0.5 to 10,000 ng/mL, was prepared in duplicate. A solution of 400 μg/mL of test compound in dimethyl sulfoxide (DMSO) was serially diluted (3-fold) in 100% DMSO, and then 2.5 μL of each standard solution was added to 100 μL of naïve male CD-1 mice brain homogenate. To mimic the extraction in the standard curve, 2.5 μL of DMSO was added to all test samples. Both calibration and test brain homogenate samples were spiked with 10 μL of an IS (1 μg/mL of a structural analog). Brain homogenate was generated by adding 0.75 mL of 4:1 water:MeOH to each brain sample followed by homogenization for 1 minute with bead beater tubes a 6 m/s using an MP Fast Prep-24®. Proteins were precipitated from 100 μL of brain homogenate sample by the addition of 300 μL of acetonitrile. Samples were vortex-mixed for 5 minutes and spun in an Allegra X-12R centrifuge (Beckman Coulter, Fullerton, CA; SX4750A rotor) for 15 min at approximately 1,500×g at 4° C. A 100 μL aliquot of each supernatant was transferred via a 550 μL Personal Pipettor (Apricot Designs, Monrovia, CA) to 96-well plates and diluted 1:1 with HPLC grade water. The resulting plates were sealed with aluminum for LC-MS/MS analysis.\nBrain-to-plasma ratios were calculated using the concentration of compound measured in the brain divided by the concentration of compound measured in the plasma. Brain-to-plasma ratios were always generated from a single animal and time point. Free brain-to-free plasma ratios were calculated by multiplying the brain-to-plasma ratio by the in vitro brain homogenate free fraction divided by the in vitro plasma free fraction using the following equation: (B/P)*(Bfu/Pfu). Table C provides the free brain-to-free plasma ratios of compounds disclosed herein."}},
  "data": [
    {"smiles": "Cn1cnc2ccc(Nc3c(F)ccc(NS(=O)(=O)N4CC5CC4C5)c3Cl)c(F)c2c1=O", "note": "[Example 13, N-(2-chloro-4-fluoro-3-((5-fluoro-3-methyl-4-oxo-3,4-dihydroquinazolin-6-yl)amino)phenyl)-2-azabicyclo[2.1.1]hexane-2-sulfonamide]", "values": [
      {"measurement": "IC50", "setting": "[1]", "value": 15, "unit": "nM"},
      {"measurement": "Kp", "setting": "[2]", "value": "0.75 to 0.93"}
    ]},
    {"smiles": "Cn1cnc2ccc(Nc3c(F)ccc(NS(=O)(=O)N4CC[C@@H](F)C4)c3Cl)c(F)c2c1=O", "note": "[Example 14, (R)-N-(2-chloro-4-fluoro-3-((5-fluoro-3-methyl-4-oxo-3,4-dihydroquinazolin-6-yl)amino)phenyl)-3-fluoropyrrolidine-1-sulfonamide]", "values": [
      {"measurement": "IC50", "setting": "[1]", "value": 7.1, "unit": "nM"},
      {"measurement": "Kp", "setting": "[2]", "value": "0.13 to 0.39"}
    ]}
  ]
}
